According to patent publication US20140121201A1, “REGULATORY NETWORK FOR Th17 SPECIFICATION AND USES THEREOF” (priority 2012, published 2014):
Values belong to the molecule of their own block, whether it stands above or below them.

Legend:
[1] = test system: primary human macrophages; details: cited from earlier work
STAT3 = target: T1, STAT3 (mouse, UniProt P42227 2-770); experiment: co-immunoprecipitation of endogenous IRF4 from Th17-polarized cell lysate, western blot for STAT3
T1 construct: Endogenous transcription factor, probed by western blot (anti-STAT3, Cell Signaling) in the IRF4 immunoprecipitate
Protocol: Naïve CD4 positive T cells were sorted and cultured under Th17 polarizing conditions for 48 h prior to assay. Whole cells lysates were prepared with high salt buffer (10 mM Tris, 420 mM NaCl, 0.5% NP40, 1 mM EDTA), sonicated, spun to remove insoluble particles, and diluted to a final concentration of 150 mM NaCl for co-immunoprecipitation. Endogenous IRF4 was immunoprecipitated using anti-IRF4 antibody in the presence or absence of 50 ug/ml ethidium bromide.

T1 sequence (P42227 2-770 limits assumed): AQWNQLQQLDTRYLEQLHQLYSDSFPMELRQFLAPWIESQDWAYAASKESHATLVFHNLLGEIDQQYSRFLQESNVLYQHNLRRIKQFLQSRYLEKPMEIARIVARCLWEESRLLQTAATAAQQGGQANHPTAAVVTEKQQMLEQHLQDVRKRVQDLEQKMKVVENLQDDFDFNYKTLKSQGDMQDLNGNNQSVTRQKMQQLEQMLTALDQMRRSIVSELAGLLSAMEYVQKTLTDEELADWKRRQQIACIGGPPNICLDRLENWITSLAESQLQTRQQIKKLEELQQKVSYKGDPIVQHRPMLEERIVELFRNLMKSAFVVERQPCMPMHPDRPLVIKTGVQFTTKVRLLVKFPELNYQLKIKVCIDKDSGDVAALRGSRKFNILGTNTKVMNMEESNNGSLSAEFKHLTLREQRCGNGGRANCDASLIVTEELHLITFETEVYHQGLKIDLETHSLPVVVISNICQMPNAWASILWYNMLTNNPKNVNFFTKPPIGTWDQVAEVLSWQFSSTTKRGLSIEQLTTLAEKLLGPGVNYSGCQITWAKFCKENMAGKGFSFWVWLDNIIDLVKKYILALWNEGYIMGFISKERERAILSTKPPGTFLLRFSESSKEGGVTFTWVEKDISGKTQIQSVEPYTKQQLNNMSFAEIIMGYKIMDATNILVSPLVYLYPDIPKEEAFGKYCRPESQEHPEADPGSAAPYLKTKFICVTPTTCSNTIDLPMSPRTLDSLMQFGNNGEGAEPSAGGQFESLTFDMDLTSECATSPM

Molecule: CCOC(=O)CCNc1cc(N2CCc3ccccc3CC2)nc(-c2ccccn2)n1 [GSK-J4]
IC50 [1]: 9 µM

binding result (STAT3): no binding
B1: IRF4 (other, mouse, UniProt Q64287 1-450, looked up)
chain: MNLETGSRGSEFGMSAVSCGNGKLRQWLIDQIDSGKYPGLVWENEEKSVFRIPWKHAGKQDYNREEDAALFKAWALFKGKFREGIDKPDPPTWKTRLRCALNKSNDFEELVERSQLDISDPYKVYRIVPEGAKKGAKQLTLDDTQMAMGHPYPMTAPYGSLPAQQVHNYMMPPHDRSWRDYAPDQSHPEIPYQCPVTFGPRGHHWQGPSCENGCQVTGTFYACAPPESQAPGIPIEPSIRSAEALALSDCRLHICLYYRDILVKELTTTSPEGCRISHGHTYDVSNLDQVLFPYPDDNGQRKNIEKLLSHLERGLVLWMAPDGLYAKRLCQSRIYWDGPLALCSDRPNKLERDQTCKLFDTQQFLSELQVFAHHGRPAPRFQVTLCFGEEFPDPQRQRKLITAHVEPLLARQLYYFAQQNTGHFLRGYELPEHVTTPDYHRSLRHSSIQE
notes: Endogenous transcription factor, immunoprecipitated with an anti-IRF4 antibody from Th17-polarized cell lysate; also called Endogenous IRF4
